Assay results taken from patent US11046728B2, “Neuroactive steroids, compositions, and uses thereof” (Sage Therapeutics, Inc., priority 2013, dated 2021).
pIC50: −log10 of the molar value.

Assays:
male Sprague Dawley rats = assay: Loss of righting reflex in rats; assay type: in vivo, rat; conditions: intravenous bolus 5 mg/kg
Method: The plasma pharmacokinetics and a qualitative assessment of sedation were obtained in male Sprague Dawley rats according to the following procedure. Rats were dosed by intravenous bolus dose (60 seconds) via the foot dorsal vein at 5 mg/kg in an appropriate vehicle. In order to assess sedation, rats were gently restrained by hand to a lateral position for dose administration. […] If the animal was unable to return to an upright position, the time was recorded as the onset of loss of righting reflex (LRR). […] Sluggish or incomplete righting twice consecutively within a 30 second interval qualifies as a loss of righting reflex. After onset of LRR, animals were assessed every 5 minutes in the same manner. Recovery of righting reflex is defined as the ability of a rat to right itself completely within 20 seconds of being placed in dorsal recumbency. The duration of LRR is defined as the time interval between LRR and the return of righting reflex.

GABA receptor α4β3δ = molecular target: T1, GABA receptor α4β3δ (Homo sapiens, UniProt P28472+P48169); assay: Patch clamp electrophysiology, manual patch in CHO cells; assay type: cell-based; conditions: 10 μM test article, GABA EC20 = 2 μM, read-out: GABA (α4β3δ) Manual patch in CHO, % efficacy at 10 μM
T1 construct: expressed in transfected cells; host or cells: CHO cells, transiently transfected
T1 sequence (P48169 36-554): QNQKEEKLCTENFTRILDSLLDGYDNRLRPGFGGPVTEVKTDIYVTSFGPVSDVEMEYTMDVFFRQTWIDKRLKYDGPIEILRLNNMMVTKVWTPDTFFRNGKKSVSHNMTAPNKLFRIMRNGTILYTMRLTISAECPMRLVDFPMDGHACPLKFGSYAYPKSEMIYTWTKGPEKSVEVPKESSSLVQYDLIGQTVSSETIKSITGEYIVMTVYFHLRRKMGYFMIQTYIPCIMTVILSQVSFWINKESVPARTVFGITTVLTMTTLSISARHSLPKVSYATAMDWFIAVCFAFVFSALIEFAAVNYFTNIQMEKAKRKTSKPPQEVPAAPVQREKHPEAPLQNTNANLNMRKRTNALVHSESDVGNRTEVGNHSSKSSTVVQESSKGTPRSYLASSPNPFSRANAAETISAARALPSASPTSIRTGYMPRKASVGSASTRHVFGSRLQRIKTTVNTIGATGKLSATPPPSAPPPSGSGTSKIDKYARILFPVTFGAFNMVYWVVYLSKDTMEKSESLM
T1 sequence (P28472 26-473): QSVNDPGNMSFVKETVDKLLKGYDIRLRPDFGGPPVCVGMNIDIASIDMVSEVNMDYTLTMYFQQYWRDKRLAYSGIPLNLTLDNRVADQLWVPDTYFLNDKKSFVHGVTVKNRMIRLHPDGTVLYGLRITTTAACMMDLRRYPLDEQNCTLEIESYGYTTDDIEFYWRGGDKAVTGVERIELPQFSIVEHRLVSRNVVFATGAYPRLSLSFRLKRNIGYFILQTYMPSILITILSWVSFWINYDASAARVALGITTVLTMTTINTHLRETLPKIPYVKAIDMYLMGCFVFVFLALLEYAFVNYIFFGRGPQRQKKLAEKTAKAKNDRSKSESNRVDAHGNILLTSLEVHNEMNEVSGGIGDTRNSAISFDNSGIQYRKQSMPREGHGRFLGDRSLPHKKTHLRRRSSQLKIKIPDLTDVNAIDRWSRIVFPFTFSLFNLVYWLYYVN
T1 sequence (O14764 25-452 partner): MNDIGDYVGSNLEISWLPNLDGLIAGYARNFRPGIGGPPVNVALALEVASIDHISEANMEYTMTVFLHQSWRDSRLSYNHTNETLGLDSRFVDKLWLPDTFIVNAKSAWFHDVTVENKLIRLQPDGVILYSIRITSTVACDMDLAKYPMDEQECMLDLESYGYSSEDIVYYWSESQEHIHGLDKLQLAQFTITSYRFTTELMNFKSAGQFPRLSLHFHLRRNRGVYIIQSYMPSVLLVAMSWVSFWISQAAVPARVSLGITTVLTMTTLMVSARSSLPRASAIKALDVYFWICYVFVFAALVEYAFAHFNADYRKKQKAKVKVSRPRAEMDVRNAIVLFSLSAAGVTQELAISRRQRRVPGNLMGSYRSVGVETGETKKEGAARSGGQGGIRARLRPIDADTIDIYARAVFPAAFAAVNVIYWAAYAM

[1] = molecular target: TBPS binding, rat brain cortical membranes in the presence of 5 μM GABA; assay: 35S-TBPS displacement (steroid inhibition of TBPS binding); conditions: read-out: 35S-TBPS Radioligand Displacement (IC50)
Method: TBPS binding assays using rat brain cortical membranes in the presence of 5 μM GABA has been described (Gee et al, J. Pharmacol. Exp. Then 1987, 241, 346-353; Hawkinson et al, Mol. Pharmacol. 1994, 46, 977-985). Briefly, cortices are rapidly removed following decapitation of carbon dioxide-anesthetized Sprague-Dawley rats (200-250 g). The cortices are homogenized in 10 volumes of ice-cold 0.32 M sucrose using a glass/teflon homogenizer and centrifuged at 1500×g for 10 min at 4° C. The resultant supernatants are centrifuged at 10,000×g for 20 min at 4° C. to obtain the P2 pellets. The P2 pellets are resuspended in 200 mM NaCl/50 mM Na—K phosphate pH 7.4 buffer and centrifuged at 10,000×g for 10 min at 4° C. This washing procedure is repeated twice and the pellets are resuspended in 10 volumes of buffer. Aliquots (100 μL) of the membrane suspensions are incubated with 3 nM [^35S]-TBPS and 5 μL, aliquots of test drug dissolved in dimethyl sulfoxide (DMSO) (final 0.5%) in the presence of 5 μM GABA. The incubation is brought to a final volume of 1.0 mL with buffer. Nonspecific binding is determined in the presence of 2 μM unlabeled TBPS and ranged from 15 to 25%. Following a 90 min incubation at room temp, the assays are terminated by filtration through glass fiber filters (Schleicher and Schuell No. 32) using a cell harvester (Braudel) and rinsed three times with ice-cold buffer. Filter bound radioactivity is measured by liquid scintillation spectrometry. Non-linear curve fitting of the overall data for each drug averaged for each concentration is done using Prism (GraphPad). […] The concentration of test compound producing 50% inhibition (IC50) of specific binding and the maximal extent of inhibition (Imax) are determined for the individual experiments with the same model used for the overall data and then the means±SEMs of the individual experiments are calculated.
Various compounds are or can be screened to determine their potential as modulators of ^35S-TBPS binding in vitro. These assays are or can be performed in accordance with the above discussed procedures.

GABA receptor α1β2γ2 = molecular target: T2, GABA receptor α1β2γ2 (Homo sapiens, UniProt P14867+P47870); assay: Patch clamp electrophysiology, Qpatch in Ltk cells; assay type: cell-based; conditions: 10 μM test article, GABA EC20 = 2 μM, read-out: GABA (α1β2γ2) Qpatch in Ltk, % efficacy at 10 μM
T2 construct: expressed in transfected cells; host or cells: LTK cells, stably transfected
T2 sequence (P14867 28-456): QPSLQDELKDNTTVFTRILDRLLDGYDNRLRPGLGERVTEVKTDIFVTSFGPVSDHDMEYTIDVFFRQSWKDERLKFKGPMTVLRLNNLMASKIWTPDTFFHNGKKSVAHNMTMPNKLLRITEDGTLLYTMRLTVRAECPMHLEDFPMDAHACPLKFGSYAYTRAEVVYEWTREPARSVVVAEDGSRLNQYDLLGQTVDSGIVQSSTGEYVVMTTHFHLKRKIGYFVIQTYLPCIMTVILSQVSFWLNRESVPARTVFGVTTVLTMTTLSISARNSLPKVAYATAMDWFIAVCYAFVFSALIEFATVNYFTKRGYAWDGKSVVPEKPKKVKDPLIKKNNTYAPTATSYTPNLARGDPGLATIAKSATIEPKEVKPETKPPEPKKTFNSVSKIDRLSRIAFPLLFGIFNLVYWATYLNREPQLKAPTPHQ
T2 sequence (P47870 25-512 limits assumed): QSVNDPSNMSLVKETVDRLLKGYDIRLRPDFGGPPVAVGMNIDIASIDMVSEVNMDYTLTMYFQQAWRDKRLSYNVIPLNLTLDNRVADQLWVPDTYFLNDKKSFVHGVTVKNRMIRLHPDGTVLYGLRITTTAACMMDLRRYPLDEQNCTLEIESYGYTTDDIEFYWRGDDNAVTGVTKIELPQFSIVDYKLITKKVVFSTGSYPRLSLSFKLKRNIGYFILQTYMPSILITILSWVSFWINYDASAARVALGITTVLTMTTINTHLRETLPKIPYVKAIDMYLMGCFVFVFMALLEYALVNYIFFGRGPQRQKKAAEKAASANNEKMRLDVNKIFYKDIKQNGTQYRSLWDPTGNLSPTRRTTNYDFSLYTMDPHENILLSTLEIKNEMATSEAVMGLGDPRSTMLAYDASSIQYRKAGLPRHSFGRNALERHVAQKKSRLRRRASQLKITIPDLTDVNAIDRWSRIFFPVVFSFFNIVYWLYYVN
T2 sequence (P18507 40-475 partner): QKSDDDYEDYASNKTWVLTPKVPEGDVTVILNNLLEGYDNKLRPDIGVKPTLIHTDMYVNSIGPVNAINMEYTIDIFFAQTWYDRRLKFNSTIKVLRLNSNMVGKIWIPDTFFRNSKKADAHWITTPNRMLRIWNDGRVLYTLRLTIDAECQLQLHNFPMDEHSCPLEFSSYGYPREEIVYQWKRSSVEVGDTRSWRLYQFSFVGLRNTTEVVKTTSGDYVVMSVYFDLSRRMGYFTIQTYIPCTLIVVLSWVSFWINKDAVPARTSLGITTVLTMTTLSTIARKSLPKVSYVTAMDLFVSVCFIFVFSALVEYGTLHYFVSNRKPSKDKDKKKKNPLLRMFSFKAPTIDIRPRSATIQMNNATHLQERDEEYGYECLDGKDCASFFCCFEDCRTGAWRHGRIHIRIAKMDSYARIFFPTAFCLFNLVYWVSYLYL

male beagle dogs = assay: Duration of lateral recumbence in dogs; assay type: in vivo, dog; conditions: intravenous bolus, administered at 5 mg/kg
Method: The plasma pharmacokinetics and a qualitative assessment of sedation were obtained in male beagle dogs according to the following procedure. Dogs were dosed by intravenous bolus dose (60 seconds) via the cephalic vein at doses ranging from 2 to 5 mg/kg in an appropriate vehicle. In order to assess sedation, dogs were gently restrained for dose administration. If decreased muscle tone, limb weakness, or head drop was observed during dose administration, onset of lateral recumbence was recorded. […] Sluggish or incomplete righting to the sternal position qualifies as lateral recumbence. After onset of lateral recumbence, animals were assessed every 5 minutes in the same manner. The duration of lateral recumbence was recorded as the time interval between onset of lateral recumbence and the return to sternal position.

| SMILES | Duration of LRR (min) (male Sprague Dawley rats) | Emax at 10 µM (GABA receptor α4β3δ) | pIC50 [1] | Emax at 10 µM (GABA receptor α1β2γ2) | Duration of Lateral Recumbence (min) (male beagle dogs) |
| --- | --- | --- | --- | --- | --- |
| CCCO[C@H]1C[C@@]2(C)[C@@H](CC[C@@H]3[C@@H]2CC[C@]2(C)[C@@H](C#N)CC[C@@H]32)C[C@@H]1O [Compound 16] | C (“C” indicates the duration of LRR to be >20 minutes) | 100 to 500% | > 8.00 | > 500% | – |
| CCO[C@H]1C[C@@]2(C)[C@@H](CC[C@H]3[C@@H]4CC[C@H](C#N)[C@@]4(C)CC(=O)[C@@H]32)C[C@@H]1O [Compound 19] | B (“B” indicates the duration of LRR to be 10-20 minutes) | – | 7.00 to 7.30 | > 500% | A (“A” indicates the duration to be >20 minutes) |
| CO[C@H]1C[C@@]2(C)[C@@H](CC[C@H]3[C@@H]4CC[C@H](C#N)[C@@]4(C)CC(=O)[C@@H]32)C[C@@H]1O [Compound 3] | A (“A” indicates the duration of LRR to be <10 min) | 100 to 500% | < 6.30 | 100 to 500% | A (“A” indicates the duration to be >20 minutes) |
| CO[C@H]1C[C@]2(C)[C@@H](C#N)CC[C@H]2[C@@H]2CC[C@H]3C[C@H](O)CC[C@]3(C)[C@H]21 [Compound 31] | B (“B” indicates the duration of LRR to be 10-20 minutes) | 100 to 500% | 7.30 to 8.00 | > 500% | A (“A” indicates the duration to be >20 minutes) |
